Tests used:
HCV = tested on: HCV; design: method as in PMID 19303654; conditions: Huh-5-2 cells; cited from earlier work
Huh-5-2 cells = tested on: Huh-5-2 cells; design: method as in PMID 19303654; conditions: cited from earlier work
[1] = Host-cell metabolic activity in Huh 9-13 cells; type: cell-based; conditions: human
Huh 9-13 cells = test: Host-cell metabolic activity in Huh 9-13 cells; type: cell-based
[2] = tested on: HCV genotype 1b subgenomic replicon; test: Anti-HCV assay in Huh 5-2 cells (luciferase replicon readout); type: cell-based, hepatitis C virus (HCV); conditions: for EC50: Hepatitis C virus, Huh-5-2, Huh 5-2 cells, luminescence; for SI (CC50/EC50): Huh 5-2 cells
Description: (§1) An evaluation of the antiviral effects of the conjugated compounds was initially performed in Huh 5-2 cells utilizing the HCV genotype 1b subgenomic replicon system, based on previously reported procedures. By analyzing the dose–response curves, we calculated the concentration of each compound that inhibited the viral replication by 50% (EC50) and the concentration that reduced the host-cell metabolic activity by 50% (CC50). These values were then used to compute the selectivity index (SI = CC50/EC50), which serves as an indicator of a compound’s therapeutic window. Even if an EC50 was determined from the dose–response curve in the antiviral assay, the compounds that were evaluated may not qualify as promising hits. […] It is likely that the antiviral activity observed in the other compounds is due to their nonspecific or pleiotropic effects on the host cell.
Huh 5-2 cells were plated in white, tissue culture-treated 96-well view plates (Packard, Canberra, Canada) at a density of 5 × 10^3 cells per well, using complete Dulbecco’s Modified Eagle Medium (DMEM) containing 250 µg/mL G418. Following 24 h incubation at 37 °C with 5% CO2, the medium was discarded and serial 3-fold dilutions of the test compounds—prepared in complete DMEM lacking G418—were added to reach a final volume of 100 µL per well. After an additional 4-day incubation period under the same conditions, the medium was removed, and luciferase activity was assessed using the Steady-Glo luciferase assay kit (Promega, Leiden, The Netherlands). Luminescence was measured with a Luminoskan Ascent reader (Thermo, Vantaa, Finland). The EC50 value was determined as the compound concentration resulting in a 50% decrease in luciferase signal.

HCV subgenomic replicon = test: Anti-HCV assay in Huh 9-13 cells (real-time quantitative RT-PCR of replicon RNA); type: cell-based, hepatitis C virus (HCV); conditions: for % replicon RNA: normalized against no-drug control; for EC50: Hepatitis C virus
Description: Furthermore, the antiviral activity of three of the hits (i.e., 7a, 7b, and 18) was validated by evaluation of the dose–response effect of treatment with the compounds at the level of viral RNA replication in the Huh 9-13 assay system. The real-time quantitative RT-PCR readout was used.
Huh 9-13 cells were seeded at 5 × 10^3 cells per well into 96-well plates containing complete DMEM supplemented with 1000 µg/mL G418. […] After 4 days of incubation, the culture medium was removed, and the cell monolayers were washed once with phosphate-buffered saline (PBS). Cells were then lysed using 350 µL of RLT buffer (Qiagen, Venlo, The Netherlands) as per the manufacturer’s protocol, and the lysates were stored at −80 °C for future analysis. Upon completion of sample collection, RNA was extracted, and the samples were analyzed through quantitative real-time PCR to measure their HCV replicon content. The real-time RT-PCR data for all samples were calibrated against the “no-drug control”.
* After collection of all samples, RNA was extracted and samples were analyzed by quantitative real-
time PCR for their HCV replicon content. Real-time RT-PCR values of all assayed samples were
normalized against the “no-drug control”.

Detroit 551 cells = test: Cell viability (MTS) assay in Detroit 551 cells; type: cell-based; conditions: Detroit 551 cells
Description: Detroit 551 cells, a human fibroblast cell line, are routinely employed to assess both acute and chronic toxicity in normal human cells. Evaluating the cytotoxicity of compounds in Detroit 551 cells helps to identify potential safety concerns early in drug development. The three promising leads, 7a, 7b, and 18, were tested in a Detroit 551 assay using the antineoplastic and antibiotic agent actinomycin D as a positive control.
Detroit 551 cells were harvested and seeded into a 96-well plate, then incubated at 37 °C for 24 h. A serial dilution of the test compound was prepared in eight three-fold concentrations (20,000 nM, 6667 nM, 2222 nM, 741 nM, 247 nM, 82 nM, 27 nM, and 9 nM), and 10 µL of each dilution was added to the corresponding wells. The plate was then returned to 37 °C for an additional 72 h of incubation. After this incubation, a 3-(4,5-dimethylthiazol-2-yl)-5-(3-carboxymethoxyphenyl)-2-(4-sulfophenyl)-2H-tetrazolium (MTS) assay medium (mixed in a 2:0.1 ratio of MTS–phenazine methyl sulfate (PMS)) was prepared. The plate was moved to a biological safety cabinet, and 21 µL of the MTS medium was added to each well. The plate was then incubated at 37 °C for 90 min before absorbance was measured at 490 nm on a Victor 2 plate reader (PerkinElmer, Inc., Waltham, MA, USA). Data were subsequently analyzed to assess cytotoxicity.

[3] = Host-cell metabolic activity (MTS assay) in Huh 5-2 cells; type: cell-based; conditions: human
Description: as §1

[4] = primary screening, tested starting at 50 μg/mL
[5] = secondary screen starting at 125 μg/mL

## CCC[C@H](NC(=O)[C@@H]1[C@H]2CCC[C@H]2CN1C(=O)[C@@H](NC(=O)[C@@H](NC(=O)c1cnccn1)C1CCCCC1)C(C)(C)C)C(=O)C(=O)NC1CC1 [telaprevir]
HCV
  EC50: 1.1 µM
Huh-5-2 cells
  CC50: ≥ 24 µM

## O=c1oc2ccc(Cl)cc2cc1CSc1ncnc2c1ncn2[C@@H]1O[C@H](CO)[C@@H](O)[C@H]1O [Compound 7b, 6-(6′-Chlorocoumarin-3′-yl)methylthio-9-(β-D-ribofuranos-1″-yl)purine]
[1]; compound 18 tested starting at 125 µg/mL
  CC50: > 105 µM
[1]; supplement dose-response data
  CC50: > 50 µg/mL
Huh 9-13 cells; 0.023 µg/ml
  % cell metabolism: 100%
Huh 9-13 cells; 0.069 µg/ml
  % cell metabolism: 107%
Huh 9-13 cells; 0.206 µg/ml
  % cell metabolism: 102%
Huh 9-13 cells; 0.617 µg/ml
  % cell metabolism: 108%
Huh 9-13 cells; 5.56 µg/ml
  % cell metabolism: 115%
Huh 9-13 cells; 16.67 µg/ml
  % cell metabolism: 113%
Huh 9-13 cells; 50 µg/ml
  % cell metabolism: 94%
Huh 9-13 cells; 1.852 (7b: 1.85) µg/ml
  % cell metabolism: 106%
[2]; [4]
  EC50: 8.8 µM
[2]; secondary screen starting at 125 μg/mL, average of triplicate
  EC50: 5.6 µM
[2]; primary screening starting at 50 μg/mL
  SI (CC50/EC50): >12
[2]; [5]
  SI (CC50/EC50): >47
HCV subgenomic replicon
  SI (CC50/EC50): >16
HCV subgenomic replicon; 0.023 µg/ml
  Quantity (HCV replicon RNA, real-time PCR): 1.11E-04
  % replicon RNA: 92%
HCV subgenomic replicon; 0.069 µg/ml
  Quantity (HCV replicon RNA, real-time PCR): 1.33E-04
  % replicon RNA: 110%
HCV subgenomic replicon; 0.206 µg/ml
  Quantity (HCV replicon RNA, real-time PCR): 2.07E-04
  % replicon RNA: 171%
HCV subgenomic replicon; 0.617 µg/ml
  Quantity (HCV replicon RNA, real-time PCR): 1.03E-04
  % replicon RNA: 85%
HCV subgenomic replicon; 5.56 µg/ml
  Quantity (HCV replicon RNA, real-time PCR): 2.85E-05
  % replicon RNA: 24%
HCV subgenomic replicon; 16.67 µg/ml
  Quantity (HCV replicon RNA, real-time PCR): 1.64E-05
  % replicon RNA: 14%
HCV subgenomic replicon; 50 µg/ml
  Quantity (HCV replicon RNA, real-time PCR): 3.63E-06
  % replicon RNA: 3%
HCV subgenomic replicon; 1.852 (7b: 1.85) µg/ml
  Quantity (HCV replicon RNA, real-time PCR): 9.12E-05
  % replicon RNA: 75%
HCV subgenomic replicon; real-time quantitative RT-PCR readout
  EC50: 6.6 µM
HCV subgenomic replicon; supplement dose-response data
  EC50: 3.17 µg/mL
Detroit 551 cells; 20 μM
  cell death at highest tested concentration: none of the three compounds induced cell death
Detroit 551 cells; Homo sapiens, 72 h incubation, tested starting at 20.0 μM, read-out: IC50 (cell survival rate of 50%)
  IC50: > 20 µM
[3]; [4]
  CC50: > 105 µM
[3]; [5]
  CC50: > 262 µM

## CC(C)(C)NC(=O)N[C@H](C(=O)N1C[C@H]2[C@@H]([C@H]1C(=O)NC(CC1CCC1)C(=O)C(N)=O)C2(C)C)C(C)(C)C (some centres unmarked) [boceprevir]
HCV
  EC50: 0.93 µM
Huh-5-2 cells
  CC50: ≥ 7.4 µM
